{"source": "paper PMC9225265", "about": "“Functional Analysis of the Plasma Membrane H^+-ATPases of Ustilago maydis” (Journal of Fungi, 2022)", "tested_on": "T1, plasma membrane H+-ATPases of wild-type FB2 (Pma1 and Pma2)", "T1 construct": "native enzymes in isolated plasma membrane fraction of wild-type sporidia; both pumps present; vanadate-sensitive ATPase activity", "assay": "Pi release (Fiske-Subbarow), vanadate-sensitive ATPase activity of plasma membrane fraction, Michaelis-Menten fit", "type": "biochemical, Mycosarcoma maydis", "conditions": "MES pH 6.5, 5 mM MgCl2, 30 °C, ATP regenerating system (phosphoenolpyruvate / pyruvate kinase), NaN3, KNO3, Pma1 and Pma2 together, rounded value for all strains, exact value in figure"}
{"smiles": "Nc1ncnc2c1ncn2[C@@H]1O[C@H](COP(=O)(O)OP(=O)(O)OP(=O)(O)O)[C@@H](O)[C@H]1O", "note": "[Mg-ATP]", "values": [{"measurement": "Km", "value": "~2000", "unit": "µM"}]}
